Columns and labels:
[1] = target: GDP-bound KRAS protein (aa 1-169), containing both G12D and C118A amino acid substitutions (Homo sapiens (Human), UniProt P01116, C118A/G12D); assay: KRAS G12D Coupled Nucleotide Exchange Assay; format: biochemical; conditions: read-out: KRAS G12D Coupled Exchange IC50
[2] = system: Phosphorylation of ERK1/2 in AsPC-1 cells; assay: Phospho-ERK1/2 MSD Assay; format: cell-based, human; conditions: Homo sapiens, ASPC1, 2 h, read-out: 2 h p-ERK (AsPC-1 cells), IC50
In short: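 Read-out: MSD electrochemiluminescent detection of phosphorylated ERK1/2 in whole-cell lysates, fitted to a 4-parameter logistic curve for IC50. Prior to lysis, AsPC-1 cells (25,000 per well) received a 2 h compound dose-response at 37 °C.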

AsPC-1 cells = assay: AsPC-1 CTG Assay (CellTiter-Glo cell viability); format: cell-based, human; conditions: Homo sapiens, ASPC1, 72 h, AsPC-1, 72 h; first value of the cell; read-out: G12D/C/V Cell Proliferation CTG (72 h) AsPC-1
In short: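 Human pancreatic AsPC-1 or colon SW620 cells in RPMI 1640 with 10% FBS, seeded overnight, then exposed to serially diluted compound for 72 h at 37 °C. CellTiter-Glo luminescence normalized to DMSO control; IC50 from a 4-parameter logistic model.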

[3] = target: His-tagged KRAS G12D protein (Homo sapiens (Human), UniProt P01116, G12D); assay: KRAS G12D TR-FRET Assay; format: binding; conditions: read-out: KRAS G12D Binding IC50
Chain of His-tagged KRAS G12D protein (P01116 other isoform, or with tags, fused parts or gaps G12D): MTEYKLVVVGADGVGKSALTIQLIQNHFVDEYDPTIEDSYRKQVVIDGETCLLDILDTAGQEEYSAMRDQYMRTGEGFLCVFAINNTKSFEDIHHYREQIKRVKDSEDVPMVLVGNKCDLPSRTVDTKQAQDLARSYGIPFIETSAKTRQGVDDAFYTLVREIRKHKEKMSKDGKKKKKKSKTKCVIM
In short: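 His-tagged KRAS G12D (diluted to 20 nM in pH 7.4 HEPES buffer with 10 mM MgCl2 and 10 μM GDP) was preincubated with titrated compound for 30 min at room temperature. Biotinylated KRPep-2d peptide (diluted to 20 nM) was then added for 1 h, and displacement was monitored by TR-FRET.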

Chain of GDP-bound KRAS protein (aa 1-169), containing both G12D and C118A amino acid substitutions (P01116 other isoform, or with tags, fused parts or gaps G12D/C118A): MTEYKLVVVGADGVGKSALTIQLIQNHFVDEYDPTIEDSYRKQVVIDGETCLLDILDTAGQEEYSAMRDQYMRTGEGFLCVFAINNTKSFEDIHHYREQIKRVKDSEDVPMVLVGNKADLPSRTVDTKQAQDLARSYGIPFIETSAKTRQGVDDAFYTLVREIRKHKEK

SMILES	IC50 [1] [nM]	IC50 [2] [nM]	IC50 (AsPC-1 cells) [nM]	IC50 [3] [nM]
Cc1cc2[nH]ncc2c2c1C[C@@H](C)CCOC[C@@H]1CCCN(C1)c1nc(OC[C@@]34CCCN3C[C@H](F)C4)nc3c(F)c-2ncc13 [Example 250, (12R,17R)-30-fluoro-24-(((2R,7aS)-2-fluorotetrahydro-1H-pyrrolo[1,2-a]pyrrol-7a(5H)-yl)methoxy)-9,12-dimethyl-15-oxa-5,6,21,23,25,29-hexaazahexacyclo[24.3.1.1~17,21~.0~2,10~.0~3,7~.0~22,27~]hentriaconta-1(30),2,4,7,9,22,24,26,28-nonaene]	6	128	1060	13
C[C@@H]1CCOC[C@H]2CN(CCO2)c2nc(OC[C@@]34CCCN3C[C@H](F)C4)nc3c(F)c(ncc23)-c2c(c(Cl)cc3[nH]ncc23)C1 [Example 253, (12S,17R)-9-chloro-30-fluoro-24-(((2R,7aS)-2-fluorotetrahydro-1H-pyrrolo[1,2-a]pyrrol-7a(5H)-yl)methoxy)-12-methyl-15,18-dioxa-5,6,21,23,25,29-hexaazahexacyclo[24.3.1.1~17,21~.0~2,10~.0~3,7~.0~22,27~]hentriaconta-1(30),2,4,7,9,22,24,26,28-nonaene]	6	67.8	1200	9
Fc1c2ncc3c(nc(OC[C@@]45CCCN4C[C@H](F)C5)nc13)N1CC[C@@H](COCCCCc3c(Cl)cc4[nH]ncc4c3-2)C1 [Example 254, (17R)-9-chloro-29-fluoro-23-(((2R,7aS)-2-fluorotetrahydro-1H-pyrrolo[1,2-a]pyrrol-7a(5H)-yl)methoxy)-15-oxa-5,6,20,22,24,28-hexaazahexacyclo[23.3.1.1~17,20~.0~2,10~.0~3,7~.0~21,26~]triaconta-1(29),2,4,7,9,21,23,25,27-nonaene]	12	545	3970	19
O=C1N[C@@H]2CCCCN(C2)c2nc(OC[C@@]34CCCN3C[C@H](F)C4)nc3c(F)c(ncc23)-c2c(c(Cl)cc3[nH]ncc23)CCCO1 [Example 256, (26R)-18-chloro-32-fluoro-4-(((2R,7aS)-2-fluorotetrahydro-1H-pyrrolo[1,2-a]pyrrol-7a(5H)-yl)methoxy)-23-oxa-1,3,5,9,14,15,25-heptaazahexacyclo[24.4.1.1~6, 10~.0~2,7~.0~11,19~.0~12,16~]dotriaconta-2,4,6(32),7,9,11,13,16,18-nonaen-24-one]	5	9.4	229	4
Fc1c2ncc3c(nc(OC[C@@]45CCCN4C[C@H](F)C5)nc13)N1CCOCC(C1)Cn1ncc(n1)/C=C\c1c(Cl)cc3[nH]ncc3c1-2 (stereo partly drawn) [Example 258, (20Z)-18-chloro-34-fluoro-4-(((2R,7aS)-2-fluorotetrahydro-1H-pyrrolo[1,2-a]pyrrol-7a(5H)-yl)methoxy)-29-oxa-1,3,5,9,14,15,24,25,33-nonaazaheptacyclo[25.4.1.1~6,10~.1~22,25~.0~2,7~.0~11,19~.0~12,16~]tetratriaconta-2,4,6,8,10(34),11,13,16,18,20,22(33),23-dodecaene]	6	82.9	996	13
CN(C)CC1(COc2nc3c4cnc(c(F)c4n2)-c2c(c(Cl)cc4[nH]ncc24)CCCCC(=O)N2CC[C@@H]4CCN3C[C@@H]42)CC1 [Example 268, (28S,32R)-18-chloro-4-((1-((dimethylamino)methyl)cyclopropyl)methoxy)-33-fluoro-1,3,5,9,14,15,25-heptaazaheptacyclo[23.5.2.1~6,10~.0~2,7~.0~11,19~.0~12,16~.0~28,32~]tritriaconta-2,4,6,8,10(33),11,13,16,18-nonaen-24-one]	4	246	1350	7
O=C1CCCCc2c(Cl)cc3[nH]ncc3c2-c2ncc3c(nc(OC[C@@]45CCCN4C[C@H](F)C5)nc3c2F)N2CC3CCN1C(C3)C2 (stereo partly shown) [Example 269]	11	250	606	16
O=C1COCCCc2c(Cl)cc3[nH]ncc3c2-c2ncc3c(nc(OC[C@@]45CCCN4C[C@H](F)C5)nc3c2F)N2CCCC[C@H](C2)N1 [Example 272, (27R)-18-chloro-33-fluoro-4-(((2R,7aS)-2-fluorotetrahydro-1H-pyrrolo[1,2-a]pyrrol-7a(5H)-yl)methoxy)-23-oxa-1,3,5,9,14,15,26-heptaazahexacyclo[25.4.1.1~6,10~.0~2,7~.0~11,19~.0~12,16~]tritriaconta-2,4,6,8,10(33),11,13,16,18-nonaen-25-one]	3	250	1760	11
O=C1CCCCc2c(Cl)cc3[nH]ncc3c2-c2ncc3c(nc(OC[C@@]45CCCN4C[C@H](F)C5)nc3c2F)N2CCC[C@]3(C2)C[C@H](C3)N1 [Example 273, (1S,3R)-11-chloro-33-fluoro-25-(((2R,7aS)-2-fluorotetrahydro-1H-pyrrolo[1,2-a]pyrrol-7a(5H)-yl)methoxy)-4,14,15,20,24,26,28-heptaazaheptacyclo[26.3.1.1~1,3~.1~19,23~.0~10,18~.0~13,17~.0~22,27~]tetratriaconta-10,12,15,17,19(33),20,22,24,26-nonaen-5-one]	2	1100	5000	3
O=C1CCCc2c(Cl)cc3[nH]ncc3c2-c2ncc3c(nc(OC[C@@]45CCCN4C[C@H](F)C5)nc3c2F)N2CCCC3(CC(C3)N1)C2 [Example 274]	16	1780	5000	32
Cc1cc2[nH]ncc2c2c1CCCCC(=O)N[C@]1(C)CCCCN(C1)c1nc(OC[C@@]34CCCN3C[C@H](F)C4)nc3c(F)c-2ncc13 [Example 280, (26R)-32-fluoro-4-(((2R,7aS)-2-fluorotetrahydro-1H-pyrrolo[1,2-a]pyrrol-7a(5H)-yl)methoxy)-18,26-dimethyl-1,3,5,9,14,15,25-heptaazahexacyclo[24.4.1.1~6,10~.0~2,7~.0~11,19~.0~12,16~]dotriaconta-2,4,6,8,10(32),11,13,16,18-nonaen-24-one]	3	99	475	10
O=C1N[C@@H]2C[C@H](O)CN(C2)c2nc(OC[C@@]34CCCN3C[C@H](F)C4)nc3c(F)c(ncc23)-c2c(c(Cl)cc3[nH]ncc23)CCCO1 [Example 284, (17R,19S)-9-chloro-30-fluoro-24-(((2R,7aS)-2-fluorotetrahydro-1H-pyrrolo[1,2-a]pyrrol-7a(5H)-yl)methoxy)-19-hydroxy-14-oxa-5,6,16,21,23,25,29-heptaazahexacyclo[24.3.1.1~17,21~.0~2,10~.0~3,7~.0~22,27~]hentriaconta-1(30),2,4,7,9,22,24,26,28-nonaen-15-one]	2	41.3	788	5
O=C1NCCCc2c(Cl)cc3[nH]ncc3c2-c2ncc3c(nc(OC[C@@]45CCCN4C[C@H](F)C5)nc3c2F)N2CCCC[C@H](C2)O1 [Example 288]	2	102	427	7
O=C1N[C@H]2C[C@@]3(CCCN(C3)c3nc(OC[C@@]45CCCN4C[C@H](F)C5)nc4c(F)c(ncc34)-c3c(c(Cl)cc4[nH]ncc34)CCO1)C2 [Example 289, 10-chloro-32-fluoro-24-(((2R,7aS)-2-fluorotetrahydro-1H-pyrrolo[1,2-a]pyrrol-7a(5H)-yl)methoxy)-6-oxa-4,13,14,19,23,25,27-heptaazaheptacyclo[25.3.1.1~1,3~.1~18,22~.0~9,17~.0~12,16~.0~21,26~]tritriaconta-9,11,14,16,18(32),19,21,23,25-nonaen-5-one]	6	110	613	10
Cc1cc2[nH]ncc2c2c1CCCOC(=O)N[C@]1(C)CCCCN(C1)c1nc(OC[C@@]34CCCN3C[C@H](F)C4)nc3c(F)c-2ncc13 [Example 292, (26R)-32-fluoro-4-(((2R,7aS)-2-fluorotetrahydro-1H-pyrrolo[1,2-a]pyrrol-7a(5H)-yl)methoxy)-18,26-dimethyl-23-oxa-1,3,5,9,14,15,25-heptaazahexacyclo[24.4.1.1~6,10~.0~2,7~.0~11,19~.0~12,16~]dotriaconta-2,4,6(32),7,9,11,13,16,18-nonaen-24-one]	2	17.1	178	4
Fc1c2ncc3c(nc(OC[C@@]45CCCN4C[C@H](F)C5)nc13)N1CCOC[C@H](C1)c1cnn(n1)CCCc1c(Cl)cc3[nH]ncc3c1-2 [Example 298, (1R)-10-chloro-33-fluoro-24-(((2R,7aS)-2-fluorotetrahydro-1H-pyrrolo[1,2-a]pyrrol-7a(5H)-yl)methoxy)-30-oxa-4,5,13,14,19,23,25,27,34-nonaazaheptacyclo[25.4.1.1~2,5~.1~18,22~.0~9,17~.0~12,16~.0~21,26~]tetratriaconta-2(34),3,9,11,14,16,18(33),19,21,23,25-undecaene]	3	91.3	592	7
